Test systems include CCRF-CEM leukemia; HCT-116 colon; HT29 colon; KM12 colon; LOX IMVI melanoma; M14 melanoma; OVCAR-5 ovarian; RPMI-8226 leukemia; RXF 393 renal; SK-OV-3 ovarian.
Common to all, as to experiment: inhibition of tumour cell growth, NCI panel, 48 h

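Grown in 96-well plates, cells were treated for 48 hours with each compound at five concentrations. Insufficient inhibition: endpoint recorded as highest concentration tested. GI50 is the concentration that inhibits growth by half. TGI: concentration producing complete growth inhibition.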

Take `CCCCCCCCCCCCN(O)C(=O)c1ccccc1`: the TGI with CCRF-CEM leukemia was over 100 µM; with HCT-116 colon, over 100 µM; in the experiment with HT29 colon, over 100 µM; in the experiment with KM12 colon it was over 100 µM; with LOX IMVI melanoma it was over 100 µM; in the experiment on M14 melanoma, 82.2 µM. The TGI is 82.2 µM with OVCAR-5 ovarian, over 100 µM in the experiment with RPMI-8226 leukemia, over 100 µM in the experiment with RXF 393 renal and 92.1 µM in the experiment on SK-OV-3 ovarian.
As for `O=C(CCCCCCSc1nc(-c2ccc(Cl)cc2)cc(-c2ccc(Cl)cc2)n1)NO`, the GI50 in the experiment with CCRF-CEM leukemia was 1.25 µM; in the experiment with HCT-116 colon, 1.45 µM; in the experiment on HT29 colon it was 1.41 µM; in the experiment with KM12 colon it was 2.02 µM; in the experiment on LOX IMVI melanoma, 1.28 µM; in the experiment on M14 melanoma, 1.26 µM. For the same compound, the GI50 in the experiment with OVCAR-5 ovarian is 1.55 µM; in the experiment with RPMI-8226 leukemia, 1.7 µM; in the experiment with RXF 393 renal, 1.07 µM; in the experiment with SK-OV-3 ovarian it was 1.32 µM. In addition, the TGI in the experiment on CCRF-CEM leukemia was over 50 µM; in the experiment with HCT-116 colon, 6.05 µM; in the experiment with HT29 colon, 7.46 µM; with KM12 colon it was over 50 µM; with LOX IMVI melanoma, 3.75 µM; with M14 melanoma, 3.87 µM. Further, the TGI in the experiment with OVCAR-5 ovarian is 5.63 µM; in the experiment with RPMI-8226 leukemia, over 50 µM; with RXF 393 renal, 2.83 µM; in the experiment on SK-OV-3 ovarian it was 4.19 µM.
On to `CCc1nc(N)nc(N)c1-c1ccc(NCCc2ccccc2)c([N+](=O)[O-])c1`, for which the TGI in the experiment with CCRF-CEM leukemia is over 61.2 µM; in the experiment on HCT-116 colon, 36.7 µM; with HT29 colon it was 22.4 µM; in the experiment with KM12 colon it was over 57 µM; in the experiment on LOX IMVI melanoma, over 100 µM; in the experiment with M14 melanoma, 39.3 µM. The TGI in the experiment on OVCAR-5 ovarian was over 73.4 µM; in the experiment with RPMI-8226 leukemia it was 7.35 µM; in the experiment with RXF 393 renal it was 40.7 µM; with SK-OV-3 ovarian, over 74.6 µM.
Turning to `COc1ccc(/C(=N/NC(N)=O)C(c2ccc(OC)cc2)C2C(=O)Oc3ccccc32)cc1` (configuration not stated), the TGI in the experiment with CCRF-CEM leukemia, in the experiment on HCT-116 colon, in the experiment on HT29 colon, in the experiment on KM12 colon, with LOX IMVI melanoma and in the experiment on M14 melanoma was over 100 µM in each case. Moreover, the TGI in the experiment with OVCAR-5 ovarian, in the experiment on RPMI-8226 leukemia, in the experiment on RXF 393 renal and in the experiment with SK-OV-3 ovarian was over 100 µM throughout.
In the case of `O=C(OCc1ccc2c(Cl)cc(Cl)c(O)c2n1)c1cc2ccccc2[nH]1`, the GI50 was 0.146 µM in the experiment on CCRF-CEM leukemia; 0.174 µM with HCT-116 colon; 0.32 µM in the experiment on HT29 colon; 1.69 µM in the experiment on KM12 colon; 0.17 µM with LOX IMVI melanoma; 0.279 µM with M14 melanoma. Also, the GI50 in the experiment with OVCAR-5 ovarian was 0.65 µM; with RPMI-8226 leukemia, 0.279 µM; in the experiment with RXF 393 renal, 0.338 µM; in the experiment on SK-OV-3 ovarian, 3.6 µM. Besides, the TGI was 1.93 µM in the experiment on CCRF-CEM leukemia; 0.372 µM in the experiment with HCT-116 colon; 1.03 µM in the experiment with HT29 colon; 3.38 µM in the experiment with KM12 colon; 0.332 µM in the experiment with LOX IMVI melanoma; 0.898 µM in the experiment on M14 melanoma. Besides, the TGI in the experiment on OVCAR-5 ovarian turned out to be 1.97 µM; in the experiment with RPMI-8226 leukemia it was 0.828 µM; with RXF 393 renal, 1.08 µM; in the experiment on SK-OV-3 ovarian it was 13.3 µM.
Turning to `CCCCn1sc(=O)n(Cc2ccc(CNC(=O)OCc3ccc4c(Br)cc(Br)c(O)c4n3)cc2)c1=O`, the GI50 in the experiment with CCRF-CEM leukemia is 0.353 µM; with HCT-116 colon it was 0.344 µM; in the experiment with HT29 colon it was 28.6 µM; in the experiment with KM12 colon it was 0.374 µM; in the experiment with LOX IMVI melanoma, 0.403 µM; in the experiment on M14 melanoma, 0.37 µM. Further, the GI50 in the experiment with OVCAR-5 ovarian was over 24.7 µM; with RPMI-8226 leukemia it was 0.501 µM; with RXF 393 renal, 0.47 µM; with SK-OV-3 ovarian, 1.72 µM. Further, the TGI in the experiment with CCRF-CEM leukemia was over 100 µM; in the experiment with HCT-116 colon, over 100 µM; in the experiment with HT29 colon it was over 100 µM; in the experiment with KM12 colon, over 24.4 µM; in the experiment with LOX IMVI melanoma it was over 100 µM; in the experiment with M14 melanoma it was over 100 µM. The TGI with OVCAR-5 ovarian, with RPMI-8226 leukemia, with RXF 393 renal and in the experiment with SK-OV-3 ovarian was over 100 µM each time.
Regarding `CC1=C[S+](c2ccccc2)c2cccc3cc4ccccc4c1c23` (configuration not stated), the GI50 is 0.265 µM in the experiment on CCRF-CEM leukemia; 0.0655 µM with HCT-116 colon; 0.348 µM with HT29 colon; 0.109 µM with KM12 colon; 0.697 µM in the experiment on LOX IMVI melanoma; 0.189 µM in the experiment with M14 melanoma. In addition, the GI50 was 1.11 µM with OVCAR-5 ovarian, 0.0379 µM with RPMI-8226 leukemia, 0.618 µM in the experiment with RXF 393 renal and 2.41 µM with SK-OV-3 ovarian. The TGI was 2.12 µM in the experiment with HT29 colon; 1.21 µM with KM12 colon; 2.23 µM with LOX IMVI melanoma; 2.52 µM in the experiment with OVCAR-5 ovarian; 0.862 µM in the experiment on RPMI-8226 leukemia; 2.05 µM in the experiment with RXF 393 renal. In the experiment with SK-OV-3 ovarian, the TGI amounted to 14.9 µM.
In the case of `CCOC(=O)NC(=O)c1cn(CCN2CCN(C(=O)CCCCCCCCCCNc3ncnc4nc[nH]c34)CC2)c(=O)[nH]c1=O`, the TGI with CCRF-CEM leukemia, in the experiment with HCT-116 colon, in the experiment with HT29 colon, in the experiment on KM12 colon, in the experiment with LOX IMVI melanoma and in the experiment with M14 melanoma was over 100 µM throughout. The TGI in the experiment on OVCAR-5 ovarian, in the experiment with RPMI-8226 leukemia, in the experiment with RXF 393 renal and in the experiment on SK-OV-3 ovarian was over 100 µM each time.
For `C#Cc1cccc(Nc2nc3ccc([N+](=O)[O-])cc3nc2Nc2cccc(C#C)c2)c1`, the GI50 in the experiment with CCRF-CEM leukemia was 0.209 µM; in the experiment with HCT-116 colon, 0.214 µM; in the experiment on HT29 colon, 0.229 µM; in the experiment on KM12 colon, 0.299 µM; with LOX IMVI melanoma, 0.172 µM; in the experiment on M14 melanoma, 0.199 µM. Moreover, the GI50 in the experiment on OVCAR-5 ovarian was 0.338 µM; in the experiment with RPMI-8226 leukemia, 0.218 µM; in the experiment with RXF 393 renal it was 0.227 µM; with SK-OV-3 ovarian, 0.257 µM. The TGI was found to be 1.03 µM in the experiment on CCRF-CEM leukemia; 0.715 µM in the experiment with HCT-116 colon; 0.562 µM in the experiment on HT29 colon; 1.03 µM with KM12 colon; 0.328 µM with LOX IMVI melanoma; 0.495 µM in the experiment on M14 melanoma. Besides, the TGI in the experiment on OVCAR-5 ovarian stood at 1.35 µM; in the experiment with RPMI-8226 leukemia, 0.998 µM; in the experiment with RXF 393 renal it was 0.618 µM; in the experiment on SK-OV-3 ovarian, 0.862 µM.

Source of the values: PubChem BioAssay (NCI).
